The values that follow come from patent US7683073B2, “Isoquinoline-1,3,4-trione compounds, the synthetic method and the use thereof” (Shanghai Institute of Materia Medica, Chinese Academy of …, priority 2005, dated 2010).

Each structure is given as a SMILES string.

Data set [1] relates to PC12 cells. As to the kind of experiment: Morphological comparison of PC12 cells treated with Aβ and caspase-3 inhibitors. Particulars: inhibitor alone; 28 μM chen-1, 200 nM Ac-Asp-Glu-Val-Asp-aldehyde; phase contrast microscope, 72 hours. The protocol: Culture of cells: PC 12 cells were obtained from XiCan Tang of Institute of Material Medica, CAS. Media were DMEM(HG) containing 10% calf serum. PC12 were incubated in an incubator with constant temperature with 5% carbon dioxide at 37° C. The cells were inoculated in Petri dishes and 96-well plates in the amount […], the compounds of the present invention were added into after 12 hours, and […] of apoptosis inducer, Aβ25-35, was added after 24 hours.

Data set [2] concerns PC12 cells. As to the kind of experiment: Flow cytometry detection of apoptotic PC12 cells (propidium iodide, sub-G1). The format is cell-based. The protocol:
Media were DMEM(HG) containing 10% calf serum.
2×10^6 cells were collected at different time respectively after PC12 were treated in the same method. Cell precipitation was washed twice with PBR, followed by adding ice ethanol, and the resulting solution was blown to disperse the cells into single, fixed for 2 hours at 4° C. Before staining, the solution was centrifuged at 300 rpm for 10 minutes, and the supernatant was discarded, then the precipitation was washed twice with PBR to remove ethanol substantially. Into the cell precipitation was added a staining solution (containing 0.1% TritonX-100, 0.1 mM EDTApH7.4, 0.01 mg/ml RNase A, 50 μg/ml propidium iodide). Cell fluorescence was detected with flow cytometry after the cells in staining solution for 30 minutes at 4° C. away from light, and percentage and cycle of apoptotic cells were calculated by analyzing DNA content. The results were obtained by flow cytometry laboratory of Institute of Biochemistry and Cell Biology, CAS.
As illustrated from the above results, it may be seen that caspase-3 inhibitors could protect PC12 markedly and resist apoptosis of PC12 mediated by neurotoxicity of Aβ of Aβ25-35, and they have no toxicity in low concentration themselves.
A general note: Flow cytometry measures light scatter and fluorescence of single cells or particles in a stream.

Setting [3] is: Aβ25-35 and inhibitor (2 μM Ac-DEVD-CHO, 28 μM Chen-1) in the medium at the same time.
The mark [4] stands for this setting: only caspase-3 inhibitor added, no Aβ25-35, after 72 hours.

For the compound `CC(=O)N[C@@H](CC(=O)O)C(=O)N[C@@H](CCC(=O)O)C(=O)N[C@H](C(=O)N[C@H](C=O)CC(=O)O)C(C)C` [Ac-DEVD-CHO, Ac-Asp-Glu-Val-Asp-aldehyde], in data set [1], the “toxic effect on PC12 cells (morphology)” value is given as “no toxic effect”. Further, the figures for the “percentage of apoptotic cells” value in data set [2] (setting [3]) and in data set [2] (setting [4]) were 4.01% and 2.27%, respectively.

Turning to `O=C1NC(=O)c2ccccc2C1=O` [Chen-1], the “toxic effect on PC12 cells (morphology)” value in data set [1] is reported as “no toxic effect”. For the same compound, the “percentage of apoptotic cells” value in data set [2] (setting [3]) is on record as 4.09%; in data set [2] (setting [4]), 2.15%.
